Values belong to the compound of their own block, whether it stands above or below them.
Experiments:
[1] = test system: anti-IgM-induced expression of CD69 on CD19 positive cells (B cells) in human PBMCs; assay: Assay C: PBMC IC50 assay (anti-IgM-induced CD69 expression); assay type: cell-based; conditions: anti-IgM stimulation
Experimental: Btk is critical for mediating the signalling of B cell antigen receptor (BCR) after anti-IgM stimulation. Based on this principle, a functional cell-based assay was established to determine the potency of compounds at inhibiting anti-IgM-induced expression of CD69, a downstream BCR signaling event, in freshly isolated human peripheral blood mononuclear cells (PBMCs). In the assay, a 90 μl PBMC suspension containing 2.5×10^5 cells was pre-treated with 10 μl of test compound at various concentrations for an hour, and then incubated overnight (approximately 16-18 hours) with 5 μl 420 μg/ml affiniPure F(ab′)2 fragment goat anti-human IgM Fc fragment per well (Dianova, Cat. No.: 109-006-129). After the incubation, the cells were washed and immunostained with an APC-labeled mouse anti-human CD69 (BD Biosciences; clone: FN50), a PerCP-Cy5.5 labelled mouse anti-human CD19 (BD Biosciences; clone: SJ25C1) and a FITC-labelled mouse anti-human CD3 (BD Biosciences; clone: HIT3a), and fixed for flow cytometric analysis of CD69 expression on CD19 positive cells (B cells). The percentage of CD69 expressing CD19 positive cells was plotted against the concentrations of test compounds to obtain a concentration response curve, and calculate an IC50 value as a measure of the potency of test compounds in the assay.

full-length human BTK = full-length human BTK (Homo sapiens (Human), UniProt Q06187); assay: Assay A: microfluidic off-chip mobility shift assay against BTK enzyme; assay type: biochemical
Sequence of full-length human BTK (Q06187 whole entry): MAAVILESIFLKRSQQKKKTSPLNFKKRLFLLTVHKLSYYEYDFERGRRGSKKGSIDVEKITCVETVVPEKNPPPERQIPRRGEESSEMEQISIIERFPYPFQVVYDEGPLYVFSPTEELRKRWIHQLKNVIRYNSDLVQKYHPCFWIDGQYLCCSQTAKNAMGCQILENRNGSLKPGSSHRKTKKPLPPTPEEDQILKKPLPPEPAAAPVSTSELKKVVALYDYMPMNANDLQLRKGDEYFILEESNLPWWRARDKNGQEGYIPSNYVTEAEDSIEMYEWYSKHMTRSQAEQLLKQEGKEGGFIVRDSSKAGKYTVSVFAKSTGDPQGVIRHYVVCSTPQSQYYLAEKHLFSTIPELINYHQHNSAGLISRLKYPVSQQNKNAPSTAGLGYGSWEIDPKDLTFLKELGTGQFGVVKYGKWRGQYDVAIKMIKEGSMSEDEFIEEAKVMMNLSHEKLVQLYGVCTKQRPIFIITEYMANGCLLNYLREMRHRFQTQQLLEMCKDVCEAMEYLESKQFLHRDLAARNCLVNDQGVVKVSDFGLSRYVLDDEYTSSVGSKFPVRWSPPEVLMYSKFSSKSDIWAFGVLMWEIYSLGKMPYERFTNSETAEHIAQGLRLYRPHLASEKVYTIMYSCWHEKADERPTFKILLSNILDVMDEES

SMILES: CN1CCN(Cc2ccc(-c3nc4c(-c5ccc(CNC(=O)c6noc(C(C)(C)C)n6)c(F)c5)ccnc4[nH]3)nc2)CC1 [Example 69, 5-tert-Butyl-N-[[2-fluoro-4-(2-[5-[(4-methylpiperazin-1-yl)methyl]pyridin-2-yl]-3H-imidazo[4,5-b]pyridin-7-yl)phenyl]methyl]-1,2,4-oxadiazole-3-carboxamide]
IC50 [1]: < 100 nM
IC50 (full-length human BTK): < 100 nM

SMILES: COc1cccc(-c2nc3c(-c4ccc(CNC(=O)c5noc(C(C)(C)C)n5)c(F)c4)ccnc3[nH]2)c1 [Example 73, 5-tert-Butyl-N-([2-fluoro-4-[2-(3-methoxyphenyl)-3H-imidazo[4,5-b]pyridin-7-yl]phenyl]methyl)-1,2,4-oxadiazole-3-carboxamide]
IC50 [1]: 100 to 1000 nM
IC50 (full-length human BTK): < 100 nM

SMILES: Cn1cc(-c2nc3c(-c4cnc(CNC(=O)c5noc(C(C)(C)C)n5)c(F)c4)ccnc3[nH]2)cn1 [Example 12, 5-tert-Butyl-[1,2,4]oxadiazole-3-carboxylic acid {3-fluoro-5-[2-(1-methyl-1H-pyrazol-4-yl)-3H-imidazo[4,5-b]pyridin-7-yl]-pyridin-2-ylmethyl}-amide]
IC50 [1]: 100 to 1000 nM
IC50 (full-length human BTK): < 100 nM

SMILES: CC(C)(C)c1nc(C(=O)NCc2ccc(-c3ccnc4[nH]c(C5=CCNCC5)nc34)cc2F)no1 [Example 134, 5-tert-Butyl-[1,2,4]oxadiazole-3-carboxylic acid 2-fluoro-4-[2-(1,2,3,6-tetrahydro-pyridin-4-yl)-3H-imidazo[4,5-b]pyridin-7-yl]-benzylamide]
IC50 [1]: 100 to 1000 nM
IC50 (full-length human BTK): < 100 nM

SMILES: Cn1cc(-c2nc3c(-c4ccc(C5(NC(=O)c6noc(C(C)(C)C)n6)CC5)c(F)c4)ccnc3[nH]2)cn1 [Example 51, 5-tert-Butyl-N-(1-[2-fluoro-4-[2-(1-methyl-1H-pyrazol-4-yl)-3H-imidazo[4,5-b]pyridin-7-yl]phenyl]cyclopropyl)-1,2,4-oxadiazole-3-carboxamide]
IC50 [1]: < 100 nM
IC50 (full-length human BTK): < 100 nM

SMILES: COc1cccc(-c2nc3c(-c4ccc(CNC(=O)c5ccc(C6CC6)cc5)c(F)c4)ccnc3[nH]2)c1 [Example 64, 4-Cyclopropyl-N-([2-fluoro-4-[2-(3-methoxyphenyl)-3H-imidazo[4,5-b]pyridin-7-yl]phenyl]methyl) benzamide]
IC50 [1]: 100 to 1000 nM
IC50 (full-length human BTK): < 100 nM

The next lines start with results.

IC50 (full-length human BTK): < 100 nM
SMILES: COc1ccc(-c2nc3c(-c4ccc(CNC(=O)c5nc(C(C)(C)C)no5)c(F)c4)ccnc3[nH]2)nc1 [Example 161, 3-tert-butyl-N-([2-fluoro-4-[2-(5-methoxypyridin-2-yl)-3H-imidazo[4,5-b]pyridin-7-yl]phenyl]methyl)-1,2,4-oxadiazole-5-carboxamide]
IC50 [1]: < 100 nM

IC50 (full-length human BTK): < 100 nM
SMILES: CC(C)(C)c1noc(C(=O)NCc2ccc(-c3ccnc4[nH]c(-c5ccc(N6CCC(F)(F)CC6)cn5)nc34)cc2F)n1 [Example 164, 3-tert-butyl-N-[(4-[2-[5-(4,4-difluoropiperidin-1-yl)pyridin-2-yl]-3H-imidazo[4,5-b]pyridin-7-yl]-2-fluorophenyl)methyl]-1,2,4-oxadiazole-5-carboxamide]
IC50 [1]: 100 to 1000 nM

IC50 (full-length human BTK): < 100 nM
SMILES: C=CC(=O)Nc1ccccc1-c1nc2nccc(-c3ccc(CNC(=O)c4nc(C(C)(C)C)no4)c(F)c3)c2[nH]1 [Example 160, 3-tert-butyl-N-[(2-fluoro-4-[2-[2-(prop-2-enamido)phenyl]-3H-imidazo[4,5-b]pyridin-7-yl]phenyl)methyl]-1,2,4-oxadiazole-5-carboxamide]
IC50 [1]: < 100 nM

IC50 (full-length human BTK): < 100 nM
SMILES: CCn1cc(-c2nc3c(-c4ccc(CNC(=O)c5nnc(C(C)(C)C)o5)c(F)c4)ccnc3[nH]2)cn1 [Example 135, 5-(tert-butyl)-N-(4-(2-(1-ethyl-1H-pyrazol-4-yl)-3H-imidazo[4,5-b]pyridin-7-yl)-2-fluorobenzyl)-1,3,4-oxadiazole-2-carboxamide]
IC50 [1]: < 100 nM

From US11098041B2 (Merck Patent GmbH, priority 2014, dated 2021)
